The assay has as its target T1, human SLC6A19 (Homo sapiens, UniProt Q695T7).
T1 construct: expressed in transfected cells
T1 sequence (Q695T7 1-634): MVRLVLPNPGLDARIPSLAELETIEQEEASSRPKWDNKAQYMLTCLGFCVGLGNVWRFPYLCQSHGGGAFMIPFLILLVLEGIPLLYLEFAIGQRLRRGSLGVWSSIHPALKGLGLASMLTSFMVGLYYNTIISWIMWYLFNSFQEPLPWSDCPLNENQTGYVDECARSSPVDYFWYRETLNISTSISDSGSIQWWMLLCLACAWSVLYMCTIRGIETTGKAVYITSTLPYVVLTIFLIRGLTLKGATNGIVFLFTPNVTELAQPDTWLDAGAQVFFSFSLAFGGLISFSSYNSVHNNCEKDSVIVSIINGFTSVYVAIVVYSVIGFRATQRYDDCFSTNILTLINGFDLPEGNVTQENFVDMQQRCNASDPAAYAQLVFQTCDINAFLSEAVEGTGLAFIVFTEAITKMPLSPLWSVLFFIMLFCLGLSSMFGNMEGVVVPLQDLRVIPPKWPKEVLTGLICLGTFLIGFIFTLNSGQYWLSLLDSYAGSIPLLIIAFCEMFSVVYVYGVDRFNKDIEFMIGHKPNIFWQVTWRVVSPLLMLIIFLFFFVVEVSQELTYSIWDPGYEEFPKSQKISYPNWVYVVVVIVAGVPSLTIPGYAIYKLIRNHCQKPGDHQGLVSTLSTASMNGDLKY
T1 sequence (Q9HBJ8 15-222 partner): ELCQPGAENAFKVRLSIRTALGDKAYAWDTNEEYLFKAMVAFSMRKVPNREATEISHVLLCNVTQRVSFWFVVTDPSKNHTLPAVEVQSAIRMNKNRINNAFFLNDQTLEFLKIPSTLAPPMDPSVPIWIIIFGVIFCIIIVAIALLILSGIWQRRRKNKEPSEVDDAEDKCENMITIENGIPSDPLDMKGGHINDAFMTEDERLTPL
The assay is described as follows: Example B2: 13C6,15N-isoleucine uptake, RapidFire mass spectrometry, in CHO cells with doxycycline-inducible expression of human SLC6A19 and TMEM27. Format: cell-based. The conditions noted are these: read-out: SLC6A19_RapidFire Uptake Assay IC50. The gist of the method: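 CHO cells were induced with doxycycline to express human SLC6A19 with TMEM27, then pre-incubated 20 min at 37 °C with compounds (2-fold, 10-point, duplicate). Uptake of 13C6,15N-isoleucine (2 mM solution added) over a further 20 min was measured by RapidFire mass spectrometry, using 13C-leucine as internal standard.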
Broadly, the IC50 is the concentration at which inhibition is half-maximal. For `Cc1cnoc1C(=O)N1CCC[C@@H](N(C)C(=O)NCc2cc3cc(Cl)ccc3[nH]2)C1` [Compound 36, (R)-3-((5-chloro-1H-indol-2-yl)methyl)-1-methyl-1-(1-(4-methylisoxazole-5-carbonyl)piperidin-3-yl)urea], the IC50 was determined as 1.57 µM.
Regarding `CN(C(=O)NCc1cc2cc(Cl)ccc2[nH]1)[C@@H]1CCCN(C(=O)[C@@H]2CC(=O)CN2)C1` [Compound 131, 3-((5-chloro-1H-indol-2-yl)methyl)-1-methyl-1-((R)-1-((S)-4-oxopyrrolidine-2-carbonyl)piperidin-3-yl)urea], the IC50 was over 45.4 µM.
The result for `CN(C(=O)NCc1cc2cc(Cl)ccc2[nH]1)[C@@H]1CCCN(C(=O)c2ccc(O)cc2F)C1` [Compound 63, (R)-3-((5-chloro-1H-indol-2-yl)methyl)-1-(1-(2-fluoro-4-hydroxybenzoyl)piperidin-3-yl)-1-methylurea] reads 0.935 µM; that for `CC(=O)N1CC(C(=O)N2CCC[C@@H](N(C)C(=O)NCc3cc4cc(Cl)ccc4[nH]3)C2)C1` [Compound 96, (R)-1-(1-(1-acetylazetidine-3-carbonyl)piperidin-3-yl)-3-((5-chloro-1H-indol-2-yl)methyl)-1-methylurea], 0.933 µM.
The result for `CN(C(=O)NCc1cc2cc(Cl)ccc2[nH]1)[C@@H]1CCCN(C(=O)CCn2cccn2)C1` [Compound 91, (R)-1-(1-(3-(1H-pyrazol-1-yl)propanoyl)piperidin-3-yl)-3-((5-chloro-1H-indol-2-yl)methyl)-1-methylurea] reads 1.81 µM.
`CN(C(=O)NCc1cc2cc(Cl)ccc2[nH]1)[C@@H]1CCCN(C(=O)COc2ccc(=O)[nH]n2)C1` [Compound 83, (R)-3-((5-chloro-1H-indol-2-yl)methyl)-1-methyl-1-(1-(2-((6-oxo-1,6-dihydropyridazin-3-yl)oxy)acetyl)piperidin-3-yl)urea]: the IC50 worked out at 4.79 µM.
Take `CN(C(=O)NCc1cc2cc(Cl)ccc2[nH]1)[C@@H]1CCCN(C(=O)c2cncnc2)C1` [Compound 20, (R)-3-((5-chloro-1H-indol-2-yl)methyl)-1-methyl-1-(1-(pyrimidine-5-carbonyl)piperidin-3-yl)urea]: the IC50 was 8.96 µM.
The result for `CN(C(=O)NCc1cc2cc(Cl)ccc2[nH]1)[C@@H]1CCCN(C(=O)c2onc3ccccc23)C1` [Compound 69, (R)-1-(1-(benzo[c]isoxazole-3-carbonyl)piperidin-3-yl)-3-((5-chloro-1H-indol-2-yl)methyl)-1-methylurea] reads over 2.81 µM; that for `CC(=O)N1CCC[C@@H](N(C)C(=O)NCc2cc3cc(Cl)cc(CO)c3[nH]2)C1` [Compound 230, (R)-1-(1-acetylpiperidin-3-yl)-3-((5-chloro-7-(hydroxymethyl)-1H-indol-2-yl)methyl)-1-methylurea], 12.8 µM; that for `COCC(=O)N1CCC[C@@H](N(C)C(=O)NCc2cc3cc(Cl)ccc3[nH]2)C1` [Compound 15, (R)-3-((5-chloro-1H-indol-2-yl)methyl)-1-(1-(2-methoxyacetyl)piperidin-3-yl)-1-methylurea], 0.539 µM.
For `CC(=O)N1CCC[C@@H](N(C)C(=O)NCc2[nH]c3ccc(Cl)cc3c2Cl)C1` [Compound 176, (R)-1-(1-acetylpiperidin-3-yl)-3-((3,5-dichloro-1H-indol-2-yl)methyl)-1-methylurea], the IC50 was 0.0307 µM.
The result for `CN(C(=O)NCc1cc2cc(Cl)ccc2[nH]1)[C@@H]1CCCN(C(=O)[C@H]2C[C@H](O)C2)C1` [Compound 64, trans-(R)-3-((5-chloro-1H-indol-2-yl)methyl)-1-(1-(3-hydroxycyclobutane-1-carbonyl)piperidin-3-yl)-1-methylurea] reads 0.651 µM.
The result for `CC(=O)N1CCC(C(=O)N2CCC[C@@H](N(C)C(=O)NCc3cc4cc(Cl)ccc4[nH]3)C2)C1` (stereo partly drawn) [Compound 185, 1-((3R)-1-(1-acetylpyrrolidine-3-carbonyl)piperidin-3-yl)-3-((5-chloro-1H-indol-2-yl)methyl)-1-methylurea] reads 4.4 µM; that for `CN(C(=O)NCc1cc2cc(Cl)ccc2[nH]1)[C@@H]1CCCN(C(=O)C2CCOCC2)C1` [Compound 95, (R)-3-((5-chloro-1H-indol-2-yl)methyl)-1-methyl-1-(1-(tetrahydro-2H-pyran-4-carbonyl)piperidin-3-yl)urea], 3.24 µM; that for `CC(=O)N1CCC[C@@H](N(C)C(=O)NCc2ccc3c(C)c(C)[nH]c3c2)C1` [Compound 225, (R)-1-(1-acetylpiperidin-3-yl)-3-((2,3-dimethyl-1H-indol-6-yl)methyl)-1-methylurea], 2.96 µM.
The result for `CN(C(=O)NCc1cc2cc(Cl)ccc2[nH]1)[C@@H]1CCCN(C(=O)CN2CCCC2=O)C1` [Compound 94, (R)-3-((5-chloro-1H-indol-2-yl)methyl)-1-methyl-1-(1-(2-(2-oxopyrrolidin-1-yl)acetyl)piperidin-3-yl)urea] reads 2.75 µM.
Consider `CC(=O)N1CCC[C@@H](N(C)C(=O)NCc2cc3cc(Cl)c(Cl)cc3[nH]2)C1` [Compound 154, (R)-1-(1-acetylpiperidin-3-yl)-3-((5,6-dichloro-1H-indol-2-yl)methyl)-1-methylurea], for which the IC50 came to 0.173 µM.
The result for `Cc1cc(N2CCC[C@@H](N(C)C(=O)NCc3cc4cc(Cl)ccc4[nH]3)C2)no1` [Compound 177, (R)-3-((5-chloro-1H-indol-2-yl)methyl)-1-methyl-1-(1-(5-methylisoxazol-3-yl)piperidin-3-yl)urea] reads 0.122 µM.
The result for `CC(O)C(=O)N1CCC[C@@H](N(C)C(=O)NCc2cc3cc(Cl)ccc3[nH]2)C1` (stereo partly drawn) [Compound 12, 3-((5-chloro-1H-indol-2-yl)methyl)-1-((3R)-1-(2-hydroxypropanoyl)piperidin-3-yl)-1-methylurea] reads 0.354 µM; that for `CCN(C(=O)NCc1cc2cc(Cl)c(F)cc2[nH]1)[C@@H]1CCCN(C(C)=O)C1` [Compound 170, (R)-1-(1-acetylpiperidin-3-yl)-3-((5-chloro-6-fluoro-1H-indol-2-yl)methyl)-1-ethylurea], 0.0451 µM; that for `COc1cc2[nH]c(CNC(=O)N(C)[C@@H]3CCCN(C(C)=O)C3)cc2cc1C` [Compound 179, (R)-1-(1-acetylpiperidin-3-yl)-3-((6-methoxy-5-methyl-1H-indol-2-yl)methyl)-1-methylurea], 1.21 µM.
The result for `CC(=O)N1CCC[C@@H](N(C)C(=O)NCc2cc3cc(Cl)c(F)cc3[nH]2)C1` [Compound 159, (R)-1-(1-acetylpiperidin-3-yl)-3-((5-chloro-6-fluoro-1H-indol-2-yl)methyl)-1-methylurea] reads 0.179 µM.
On to `CCc1cc2[nH]c(CNC(=O)N(C)[C@@H]3CCCN(C(C)=O)C3)cc2cc1Cl` [Compound 152, (R)-1-(1-acetylpiperidin-3-yl)-3-((5-chloro-6-ethyl-1H-indol-2-yl)methyl)-1-methylurea], for which the IC50 turned out to be 0.171 µM.
For the molecule `CC(=O)N1CCC[C@@H](N(C)C(=O)NCc2cc3cc(Cl)c(OCc4cncs4)cc3[nH]2)C1` [Compound 140, (R)-1-(1-acetylpiperidin-3-yl)-3-((5-chloro-6-(thiazol-5-ylmethoxy)-1H-indol-2-yl)methyl)-1-methylurea], the IC50 is 1.24 µM.
The result for `Cc1cc(C(=O)N2CCC[C@@H](N(C)C(=O)NCc3cc4cc(Cl)ccc4[nH]3)C2)on1` [Compound 31, (R)-3-((5-chloro-1H-indol-2-yl)methyl)-1-methyl-1-(1-(3-methylisoxazole-5-carbonyl)piperidin-3-yl)urea] reads 1.49 µM; that for `CN(C(=O)NCc1cc2ccccc2[nH]1)[C@@H]1CCCN(c2cccnn2)C1` [Compound 146, (R)-3-((1H-indol-2-yl)methyl)-1-methyl-1-(1-(pyridazin-3-yl)piperidin-3-yl)urea], 0.553 µM; that for `CCNC(=O)NC(C)C(=O)N1CCC[C@@H](N(C)C(=O)NCc2cc3cc(Cl)ccc3[nH]2)C1` (stereo partly drawn) [Compound 109, 3-((5-chloro-1H-indol-2-yl)methyl)-1-((3R)-1-((ethylcarbamoyl)alanyl)piperidin-3-yl)-1-methylurea], 1.81 µM.
Consider `CCC(=O)N1CCC[C@@H](N(C)C(=O)NCc2cc3cc(Cl)ccc3[nH]2)C1` [Compound 10, (R)-3-((5-chloro-1H-indol-2-yl)methyl)-1-methyl-1-(1-propionylpiperidin-3-yl)urea], for which the IC50 stood at 0.125 µM.
The result for `CC(=O)N1CCC[C@@H](N(C)C(=O)NCc2cc3[nH]ccc3cc2Cl)C1` [Compound 165, (R)-1-(1-acetylpiperidin-3-yl)-3-((5-chloro-1H-indol-6-yl)methyl)-1-methylurea] reads 8.03 µM.

These data come from patent US20260184693A1, “INHIBITORS OF SOLUTE CARRIER FAMILY 6A MEMBER 19 (SLC6A19) AND METHODS OF USE THEREOF” (Maze Therapeutics, Inc., priority 2022, published 2026).
